Measurements published in US7750013B2, “N-oxides as prodrugs of piperazine and piperidine derivatives” (Solvay Pharmaceuticals, B.V., priority 2005, dated 2010).

Columns and labels:
[1] = Plasma concentrations of tertiary amines and their N-oxides in mice (LC-MS); conditions: mouse, in vivo
Procedure: The LC-MS system consists of 2 Perkin elmer series 200 micro pumps. The pumps are connected to each other by a 50 μl tee mixer, connected to a Gilson 215 auto sampler. The method is as follows:
The auto sampler has a 2 μl injection loop. The auto sampler is connected to a Waters Atlantis C18 30*4.6 mm column with 3 μm particles. The column is thermo stated in a Perkin Elmer series 200 column oven at 40° C. The column is connected to a Perkin Elmer series 200 UV meter with a 2.7 μl flowcel. The wavelength is set to 254 nm. The UV meter is connected to a Sciex API 150EX mass spectrometer. The mass spectrometer has the following parameters: Scanrange: 150-900 a.m.u.; polarity: positive; scan mode: profile; resolution Q1: UNIT; step size: 0.10 a.m.u.; time per scan: 0.500 sec; NEB: 10; CUR: 10; IS: 5200; TEM: 325; DF: 30; FP: 225 and EP: 10. The light scattering detector is connected to the Sciex API 150. The light scattering detector is a Sedere Sedex 55 operating at 50° C. and 3 bar N2. The complete system is controlled by a G3 powermac.
For oral (p.o.) administration: to the desired quantity (0.5-5 mg) of the solid test compound in a glass tube, some glass beads were added and the solid was milled by vortexing for 2 minutes. After addition of 1 ml of a solution of 1% methylcellulose in water and 2% (v/v) of Poloxamer 188 (Lutrol F68), the compound was suspended by vortexing for 10 minutes. The pH was adjusted to 7. Remaining particles in the suspension were further suspended by using an ultrasonic bath.
For intravenous (i.v.) administration: compounds were dissolved in physiological saline (0.9% NaCl) and the pH was adjusted to 7.
Bifeprunox, SLV308 and SLV318 as well as their respective N-oxides were individually administered (either intravenously (i.v.) or orally (p.o.)) to mice (3 animals per time point), after which their blood was analyzed by LC-MS (method see above) for both the parent amine and its N-oxide. Data were averaged (n=3), and collected in the tables below.

[2] = Metabolism to the N-oxide in man; type: in vivo; conditions: after administration of the tertiary amine
Source text: But also its N-desmethyl analog and its N-oxide were detected in the plasma of all three species, after oral administration of SLV308. In man, the N-oxide accounts for approximately 30% of the administered dose.
In man, neither bifeprunox nor SLV318 are metabolized to their respective N-oxides. […] For this reason there never has been an incentive to synthesize and study these compounds until the unexpected findings with the N-oxide of SLV308.

Structure (SMILES): O=c1[nH]c2cccc(N3CC[N+]([O-])(Cc4ccccc4)CC3)c2o1 [N-oxide of SLV318, N-Oxide of SLV318]
- Analyzed in blood: N-oxide (of SLV318) ([1]; iv, 0.5 mg/kg, 24 hr): 0 ng/mL
- Analyzed in blood: SLV318 ([1]; po, 5 mg/kg, 0.17 hr): 1 ng/mL
- Analyzed in blood: SLV318 ([1]; po, 5 mg/kg, 0.5 hr): 7 ng/mL
- Analyzed in blood: N-oxide (of SLV318) ([1]; po, 5 mg/kg, 3 hr): 0 ng/mL
- Analyzed in blood: SLV318 ([1]; po, 5 mg/kg, 24 hr): 0 ng/mL

Structure (SMILES): O=c1[nH]c2cccc(N3CC[N+]([O-])(Cc4cccc(-c5ccccc5)c4)CC3)c2o1 [N-oxide of bifeprunox, N-Oxide of Bifeprunox]
- Analyzed in blood: Bifeprunox ([1]; iv, 0.5 mg/kg, 0 hr): 0 ng/mL
- Analyzed in blood: Bifeprunox ([1]; iv, 0.5 mg/kg, 0.5 hr): 176 ng/mL
- Analyzed in blood: N-oxide (of bifeprunox) ([1]; iv, 0.5 mg/kg, 0.5 hr): 85 ng/mL
- Analyzed in blood: Bifeprunox ([1]; iv, 0.5 mg/kg, 3 hr): 80 ng/mL
- Analyzed in blood: N-oxide (of bifeprunox) ([1]; iv, 0.5 mg/kg, 7 hr): 5 ng/mL
- Analyzed in blood: N-oxide (of bifeprunox) ([1]; iv, 0.5 mg/kg, 24 hr): 0 ng/mL
- Analyzed in blood: Bifeprunox ([1]; po, 5 mg/kg, 1 hr): 520 ng/mL
- Analyzed in blood: N-oxide (of bifeprunox) ([1]; po, 5 mg/kg, 1 hr): 70 ng/mL
- Analyzed in blood: N-oxide (of bifeprunox) ([1]; po, 5 mg/kg, 7 hr): 48 ng/mL
- Analyzed in blood: Bifeprunox ([1]; po, 5 mg/kg, 24 hr): 38 ng/mL
- Analyzed in blood: N-oxide (of bifeprunox) ([1]; po, 5 mg/kg, 24 hr): 6 ng/mL

Structure (SMILES): O=c1[nH]c2cccc(N3CCN(Cc4ccccc4)CC3)c2o1 [SLV318]
- Formation of N-oxide as metabolite (in words) [1]: does not give rise to a significant amount of N-oxide as metabolite
- Analyzed in blood: N-oxide (of SLV318) ([1]; iv, 0.5 mg/kg, 0.17 hr): 1 ng/mL
- Analyzed in blood: SLV318 ([1]; iv, 0.5 mg/kg, 0.17 hr): 164 ng/mL
- Analyzed in blood: N-oxide (of SLV318) ([1]; iv, 0.5 mg/kg, 0.5 hr): 0 ng/mL
- Analyzed in blood: SLV318 ([1]; iv, 0.5 mg/kg, 0.5 hr): 51 ng/mL
- Analyzed in blood: N-oxide (of SLV318) ([1]; iv, 0.5 mg/kg, 1 hr): 0 ng/mL
- Analyzed in blood: SLV318 ([1]; iv, 0.5 mg/kg, 1 hr): 18 ng/mL
- Analyzed in blood: N-oxide (of SLV318) ([1]; iv, 0.5 mg/kg, 3 hr): 0 ng/mL
- Analyzed in blood: SLV318 ([1]; iv, 0.5 mg/kg, 3 hr): 2 ng/mL
- Analyzed in blood: N-oxide (of SLV318) ([1]; iv, 0.5 mg/kg, 7 hr): 0 ng/mL
- Analyzed in blood: SLV318 ([1]; iv, 0.5 mg/kg, 7 hr): 0.2 ng/mL
- Analyzed in blood: N-oxide (of SLV318) ([1]; iv, 0.5 mg/kg, 24 hr): 0 ng/mL
- Analyzed in blood: SLV318 ([1]; iv, 0.5 mg/kg, 24 hr): 0 ng/mL
- Analyzed in blood: N-oxide (of SLV318) ([1]; po, 5 mg/kg, 0.17 hr): 0 ng/mL
- Analyzed in blood: SLV318 ([1]; po, 5 mg/kg, 0.17 hr): 71 ng/mL
- Analyzed in blood: N-oxide (of SLV318) ([1]; po, 5 mg/kg, 0.5 hr): 0 ng/mL
- Analyzed in blood: SLV318 ([1]; po, 5 mg/kg, 0.5 hr): 33 ng/mL
- Analyzed in blood: N-oxide (of SLV318) ([1]; po, 5 mg/kg, 1 hr): 0 ng/mL
- Analyzed in blood: SLV318 ([1]; po, 5 mg/kg, 1 hr): 19 ng/mL
- Analyzed in blood: N-oxide (of SLV318) ([1]; po, 5 mg/kg, 3 hr): 0 ng/mL
- Analyzed in blood: SLV318 ([1]; po, 5 mg/kg, 3 hr): 9 ng/mL
- Analyzed in blood: N-oxide (of SLV318) ([1]; po, 5 mg/kg, 7 hr): 0 ng/mL
- Analyzed in blood: SLV318 ([1]; po, 5 mg/kg, 7 hr): 2 ng/mL
- Analyzed in blood: N-oxide (of SLV318) ([1]; po, 5 mg/kg, 24 hr): 0 ng/mL
- Analyzed in blood: SLV318 ([1]; po, 5 mg/kg, 24 hr): 0 ng/mL
- N-oxide as metabolite in blood plasma (in words) [2]: never detected in significant concentrations
